This is an account of results in US20100137313A1 (ASTRAZENECA AB, priority 2008, published 2010).

For this test, the target named is S. pneumoniae Topoisomerase IV ATPase (ParE) (Streptococcus pneumoniae serotype 4, UniProt Q59961). As to the kind of experiment: S. pneumoniae Topoisomerase IV ATPase inhibition. The test is classed as biochemical. The conditions noted are these: values marked * are an average of two or more data points, read-out: % Inh (13 μM) of S. pneumoniae Topoisomerase IV ATPase. In outline: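 Malachite green/ammonium molybdate phosphate detection, A650. 1.25 nM ParE, 160 μM ATP, sheared salmon sperm DNA 5 μg/ml, 20 mM Tris pH 8.0, 8.0 mM MgCl2. Controls: 2% DMSO = 0%, 20 μM EDTA = 100% inhibition; IC50 over 10 concentrations.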
S. pneumoniae Topoisomerase IV ATPase (ParE), sequence (Q59961 whole entry): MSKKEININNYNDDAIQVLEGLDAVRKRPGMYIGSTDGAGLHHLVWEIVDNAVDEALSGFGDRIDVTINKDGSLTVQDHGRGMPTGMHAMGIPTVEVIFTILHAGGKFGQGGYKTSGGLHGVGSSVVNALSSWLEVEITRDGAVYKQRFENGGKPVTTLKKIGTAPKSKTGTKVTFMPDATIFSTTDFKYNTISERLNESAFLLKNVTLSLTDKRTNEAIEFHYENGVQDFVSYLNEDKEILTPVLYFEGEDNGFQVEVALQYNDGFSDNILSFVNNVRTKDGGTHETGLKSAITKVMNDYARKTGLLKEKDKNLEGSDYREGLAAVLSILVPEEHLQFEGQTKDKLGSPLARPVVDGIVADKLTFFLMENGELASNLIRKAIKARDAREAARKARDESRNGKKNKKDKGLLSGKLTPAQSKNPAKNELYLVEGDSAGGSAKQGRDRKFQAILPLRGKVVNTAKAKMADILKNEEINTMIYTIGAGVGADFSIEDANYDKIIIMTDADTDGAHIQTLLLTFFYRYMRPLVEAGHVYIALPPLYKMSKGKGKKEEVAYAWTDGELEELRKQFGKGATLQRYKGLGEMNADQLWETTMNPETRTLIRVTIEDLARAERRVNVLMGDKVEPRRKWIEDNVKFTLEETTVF
Turning to `Fc1ccc(Nc2ncc(-c3cncnc3)c(N3CCOCC3)n2)cc1F` [Example 352], the inhibition at 13 µM was found to be 26.7%.

With `COc1cc(Nc2ncc(-c3cccc(/C=C/C(=O)O)c3)c(NCCc3ccncc3)n2)cc(OC)c1` [Example 353, (E)-3-(3-(2-(3,5-dimethoxyphenyl-amino)-4-(2-(pyridin-4-yl)ethylamino)pyrimidin-5-yl)phenyl) acrylic acid], the inhibition at 13 µM stood at 83.9%.

Consider `COc1cc(Nc2ncc(-c3cncnc3)c(NCCc3ccncc3)n2)cc(OC)c1` [Example 354, N^2-(3,5-dimethoxyphenyl)-N^4-(2-(pyridin-4-yl)ethyl)-5,5′-bipyrimidine-2,4-diamine], for which the inhibition at 13 µM is 80.5%.

With `COc1cc(Nc2ncc(-c3cccc(/C=C/C(=O)O)c3)c(NCCc3ccncc3)n2)cc(C(F)(F)F)c1` [Example 355, (E)-3-(3-(2-(3-methoxy-5-(trifluoromethyl)phenylamino)-4-(2-(pyridin-4-yl)ethylamino)pyrimidin-5-yl)phenyl) acrylic acid], the inhibition at 13 µM amounted to 86.6%.

Regarding `COc1cc(Nc2ncc(-c3cnc(OC)nc3)c(NCCc3ccncc3)n2)cc(C(F)(F)F)c1` [Example 356, 2′-methoxy-N^2-(3-methoxy-5-(trifluoromethyl)phenyl)-N^4-(2-(pyridin-4-yl)ethyl)-5,5′-bipyrimidine-2,4-diamine], the inhibition at 13 µM turned out to be 86.5%.

Turning to `COc1cc(Nc2ncc(-c3cccc(/C=C/C(=O)O)c3)c(N[C@@H]3CCOC3)n2)cc(OC)c1` [Example 357, (R,E)-3-(3-(2-(3,5-dimethoxyphenylamino)-4-(tetrahydrofuran-3-ylamino)pyrimidin-5-yl)phenyl)acrylic acid], the inhibition at 13 µM is 85.3%.

For the molecule `COc1cc(Nc2ncc(-c3cncnc3)c(N[C@@H]3CCOC3)n2)cc(OC)c1` [Example 358, (R)-N^2-(3,5-dimethoxyphenyl)-N^4-(tetrahydrofuran-3-yl)-5,5′-bipyrimidine-2,4-diamine], the inhibition at 13 µM stood at 63%.

Regarding `O=C(O)/C=C/c1cccc(-c2cnc(Nc3ccc(F)c(Cl)c3)nc2-n2ccnc2)c1` [Example 359, (E)-3-(3-(2-(3-chloro-4-fluorophenylamino)-4-(1H-imidazol-1-yl)pyrimidin-5-yl)phenyl)acrylic acid], the inhibition at 13 µM was 86.1%.

In the case of `CONC(=O)c1cccc(-c2cnc(Nc3ccc(F)c(Cl)c3)nc2NCCCN(C)C)c1` [Example 360, 3-(2-(3-chloro-4-fluorophenylamino)-4-(3-(dimethylamino)propylamino)pyrimidin-5-yl)-N-methoxybenzamide], the inhibition at 13 µM was 112%.

In the case of `CCNC(=O)c1cccc(-c2cnc(Nc3ccc(F)c(Cl)c3)nc2NCCCN(C)C)c1` [Example 361, 3-(2-(3-chloro-4-fluorophenylamino)-4-(3-(dimethylamino)propylamino)pyrimidin-5-yl)-N-ethylbenzamide], the inhibition at 13 µM amounted to 94.8%.

Regarding `CN(C)CCCNc1nc(Nc2ccc(F)c(Cl)c2)ncc1-c1cccc(C(=O)NCc2ccccc2)c1` [Example 362, N-benzyl-3-(2-(3-chloro-4-fluorophenylamino)-4-(3-(dimethylamino)propylamino)pyrimidin-5-yl) benzamide], the inhibition at 13 µM was 107%.

In the case of `CCNC(=O)c1ccc(-c2cnc(Nc3ccc(F)c(Cl)c3)nc2NCCCN(C)C)cc1` [Example 363, 4-(2-(3-chloro-4-fluorophenylamino)-4-(3-(dimethylamino)propylamino)pyrimidin-5-yl)-N-ethylbenzamide], the inhibition at 13 µM was 57.9%.

As to `CN(C)CCCNc1nc(Nc2ccc(F)c(Cl)c2)ncc1-c1ccc(C(=O)N(C)C)cc1` [Example 364, 4-(2-(3-chloro-4-fluorophenylamino)-4-(3-(dimethylamino)propylamino)pyrimidin-5-yl)-N,N-dimethylbenzamide], the inhibition at 13 µM stood at 112%.

As for `CN(C)CCCNc1nc(Nc2ccc(F)c(Cl)c2)ncc1-c1ccc(C(=O)NCc2ccccc2)cc1` [Example 365, N-benzyl-4-(2-(3-chloro-4-fluorophenylamino)-4-(3-(dimethylamino)propylamino)pyrimidin-5-yl) benzamide], the inhibition at 13 µM worked out at 110%.

Regarding `CN(C)CCCNc1nc(Nc2ccc(F)c(Cl)c2)ncc1-c1ccc(C(=O)N(C)C)s1` [Example 366, 5-(2-(3-chloro-4-fluorophenylamino)-4-(3-(dimethylamino)propylamino)pyrimidin-5-yl)-N,N-dimethylthiophene-2-carboxamide], the inhibition at 13 µM was 80.5%.

On to `CCNC(=O)c1ccc(-c2cnc(Nc3ccc(F)c(Cl)c3)nc2NCCCN(C)C)s1` [Example 367, 5-(2-(3-chloro-4-fluorophenylamino)-4-(3-(dimethylamino)propylamino)pyrimidin-5-yl)-N-ethylthiophene-2-carboxamide], for which the inhibition at 13 µM came out at 104%.

`CN(C)CCCNc1nc(Nc2ccc(F)c(Cl)c2)ncc1-c1ccc(C(=O)NCc2ccccc2)s1` [Example 368, N-benzyl-5-(2-(3-chloro-4-fluorophenylamino)-4-(3-(dimethylamino)propylamino)pyrimidin-5-yl) thiophene-2-carboxamide]: the inhibition at 13 µM stood at 105%.

Consider `CN(C)CCCNc1nc(Nc2ccc(F)c(Cl)c2)ncc1-c1ccc(C(=O)N2CCCCC2)s1` [Example 369, (5-(2-(3-chloro-4-fluorophenylamino)-4-(3-(dimethylamino)propylamino)pyrimidin-5-yl)thiophen-2-yl) (piperidin-1-yl) methanone], for which the inhibition at 13 µM came to 122%.

In the case of `CN(C)CCCNc1nc(Nc2ccc(F)c(Cl)c2)ncc1-c1ccc(C(=O)N2CCCC(F)(F)C2)s1` [Example 370, (5-(2-(3-chloro-4-fluorophenylamino)-4-(3-(dimethylamino)propylamino)pyrimidin-5-yl)thiophen-2-yl) (3,3-difluoro-piperidin-1-yl) methanone], the inhibition at 13 µM turned out to be 129%.

As for `CN(C)CCCNc1nc(Nc2ccc(F)c(Cl)c2)ncc1-c1cncc(C(=O)NCc2ccccc2)c1` [Example 371, N-benzyl-5-(2-(3-chloro-4-fluorophenylamino)-4-(3-(dimethylamino)propylamino)pyrimidin-5-yl) nicotinamide], the inhibition at 13 µM came to 82.2%.

With `CNC(=O)/C=C/c1cccc(-c2cnc(Nc3cc(OC)cc(C(F)(F)F)c3)nc2NCCc2ccncc2)c1` [Example 372], the inhibition at 13 µM was determined as 80.9%.

As to `COc1cc(Nc2ncc(-c3cccc(/C=C/C(N)=O)c3)c(NCCc3ccncc3)n2)cc(C(F)(F)F)c1` [Example 373, (E)-3-(3-(2-(3-methoxy-5-(trifluoromethyl)phenylamino)-4-(2-(pyridin-4-yl)ethylamino)pyrimidin-5-yl)phenyl)acrylamide], the inhibition at 13 µM was 82.8%.

Take `CONC(=O)/C=C/c1cccc(-c2cnc(Nc3cc(OC)cc(C(F)(F)F)c3)nc2NCCc2ccncc2)c1` [Example 374, (E)-N-methoxy-3-(3-(2-(3-methoxy-5-(trifluoromethyl)phenylamino)-4-(2-(pyridin-4-yl)ethylamino)pyrimidin-5-yl)phenyl)acrylamide]: the inhibition at 13 µM amounted to 81.2%.

With `CNC(=O)/C=C/c1cccc(-c2cnc(Nc3ccc(F)c(Cl)c3)nc2N2CCOCC2)c1` [Example 375, (E)-3-(3-(2-(3-chloro-4-fluorophenylamino)-4-morpholinopyrimidin-5-yl)phenyl)-1H-methylacrylamide], the inhibition at 13 µM was found to be 75.9%.
